# In patent US9451771B2, “Compositions and methods to attract the brown marmorated stink bug (BMSB), Halyomorpha halys” (United States of America as Represented by the Secretary of …, priority 2012, dated 2016):
# Tested on: brown marmorated stink bug (BMSB), Halyomorpha halys
# Assay: Field trials of experimental pheromone constituents, baited black pyramid traps
# Format: in vivo
# Text: Field Bioassays. Field Trials of Experimental Pheromone Constituents: Pyramid traps based on dimensions previously used for native stink bugs (Leskey and Hogmire 2005, Hogmire and Leskey 2006) and for brown marmorated stink bugs (Leskey et al. 2012c) were used for all trials. […] Each panel was 1.22 m high, 52 cm wide at the base, and 7 cm wide at the top. Collection jars were constructed based on previously published dimensions (Hogmire and Leskey 2006) with internal cone opening of 1.6 cm with trimmed wire edging to reduce escape. In addition, a Hercon Vaportape™ II (Hercon Environmental, Emigsville, Pa.) was added as a killing agent to prevent escape from traps. In a preliminary study, addition of a killing agent increased trap captures ˜250%. Traps were deployed ˜5 meters from the border of apple and pear orchards at the Appalachian Fruit Research Station or in the border area between wood lots and row crops in Kearneysville, W. Va., Shepherdstown, W. Va., Keedysville, Md., and Beltsville, Md. Traps were spaced ˜50 meters apart. Traps were baited with compounds identified from headspace collections of male BMSB, synthesized and formulated into gray rubber septa or left unbaited.
# Fourteen trials were conducted between 19 Apr. to 20 Oct. 2011 (Table 3) and four trials between 20 Mar. to 10 Oct. 2012 (Table 4). Traps were checked a minimum of twice weekly and the treatments were re-randomized at each collection.
# All adults and nymphs were removed from traps and recorded. Hercon Vaportape™ strips were changed at four week intervals and lures were changed at two week intervals. Comparisons of adult and nymphal captures used the SAS GLM procedure to evaluate effect of treatment and replicate followed by Tukey's HSD if the model was significant. Appropriate transformations were used to stabilize normality if needed. The effect of sex was dropped from all models because it was never a significant factor.
# [1] = AFRS 2011, Trial One, 19 April-10 May
# [2] = AFRS 2011, Trial Seven, 8-19 August
# [3] = AFRS 2011, Trial Ten, 19 Sept.-4 Oct.
# [4] = Beltsville 2011, Trial One, 19 April-10 May
compound,measurement,setting,value
"CCC\C=C/C=C/C=C/C(=O)OC [Lure #3, Methyl (2E,4E,6Z)-decatrienoate]",Mean number BMSB adults (±SE) captured,[1],0.00 ± 0.00 per trap per sample
same,Mean number BMSB nymphs (±SE) captured,[1],0.00 ± 0.00 per trap per sample
same,Mean number BMSB adults (±SE) captured,[2],1.97 ± 0.37a per trap per sample
same,Mean number BMSB nymphs (±SE) captured,[2],34.55 ± 5.85a per trap per sample
same,Mean number BMSB adults (±SE) captured,[3],22.76 ± 4.41a per trap per sample
same,Mean number BMSB nymphs (±SE) captured,[3],1.24 ± 0.34a per trap per sample
same,Mean number BMSB adults (±SE) captured,[4],0.02 ± 0.02ab per treatment
same,Mean number BMSB nymphs (±SE) captured,[4],0.00 ± 0.00 per treatment
